Measured values: patent US7449495B2, “Retinoid derivatives with antiangiogenic, antitumoral and proapoptotic activities” (Sigma-Tau Industrie Farmaceutiche Riunite S.p.A., priority 2001, dated 2008)

Experiments:
[1] = system: M109 murine lung carcinoma cells; test: Cytotoxicity in combination with TRAIL, M109; format: cell-based; settings: M109, 72 hours, value >1 synergism (FIG. 2)
Protocol: FIG. 2 is a graph showing the interaction between ST1926 and TRAIL in M109 murine lung carcinoma cells at different concentrations of TRAIL.
A study of cytotoxicity of ST1926 in combination with TRAIL was performed in two different tumor cell lines such as M109 murine lung carcinoma and A2780/Dx multidrug-resistant human ovarian carcinoma. Cells were maintained in RPMI 1640 medium containing 10% FCS, 1% sodium pyruvate and 1% glutamine.
The cells were seeded in a volume of 250 μl in 96 well plates and incubated for 24 hours at 37° C. The following day, test compound ST 1926 [(2E)-3-[3′-(1-Adamantyl)-4′-hydroxy[1,1′-biphenyl]-4-yl]-2-propenoate/ic acid] or TRAIL were added at increasing concentrations, and the cells were incubated for a further 72 hours at 37° C. in a humidified atmosphere containing 5% CO2. On the 5th day, the supernatant was removed by upturning the plates. 200 μl of PBS and 50 μl of cold, 80% TCA were added. The plates were then left to incubate on ice for at least 1 hour. The TCA was removed by upturning; the plates were washed three times by immersion in distilled water and dried first on paper, then with a jet of hot air. […] The optical density was measured using a Multiskan spectrophotometer at 540 nm.
The interaction between ST1926 and TRAIL was determined by using the analysis of Drewinko et al. (Cancer Biochem. Biophys. 1: 187-195, 1976). […]

BMEC cells = test: Endothelial BMEC cells chemotaxis (Boyden chamber); format: cell-based, bovine; settings: 50 and 25 μM
Protocol: The capacity of ST1879 to inhibit cellular migration through the polycarbonate filter in the direction of the chemoattractant factor, was quantitatively evaluated by counting the number of cells present on the lower side of the filter. The percentages of migration reported in table 8 were calculated according to the formula: (treated−control/control)×100.

[2] = system: Human prostate carcinoma DU145; test: Cytotoxicity test (sulphorodamine B), DU145; format: cell-based; settings: DU-145, 24 h incubation, survival 48 h after removal
Excerpt: (§1) Different cell lines deriving from solid tumors were also used. • 1. Human prostate carcinoma PC3 and DU145. These cell lines were maintained in RPMI 1640 medium containing 10% FCS, 1% sodium pyruvate and 1% glutamine; • 2. Human colon adenocarcinoma LoVo. This cell line was maintained in HAM's F-12 medium, containing 10% FCS and 1% glutamine. • 3. Human ovarian carcinoma such as A2780 and A2780/Dx, sensitive and resistant to drugs, respectively (doxorubicin, taxol, etoposide, vincristine); IGROV-1 and IGROV-1/Pt, sensitive and resistant to platinum-based chemotherapy, respectively, were maintained in RPMI 1640 medium containing 10% FCS, 1% sodium pyruvate and 1% glutamine; • 4. Human melanoma MeWo and MeS 2.21, glioblastoma GBM, no small cell lung carcinomas A431, NCI—H460, osteosarcomas SAOS and U2OS were maintained in RPMI 1640 medium containing 10% FCS, 1% sodium pyruvate and 1% glutamine.
(§2) The cytotoxicity tests were carried out using NB4 or HL-60 cells in suspension (10000/well). The cells were seeded in a volume of 250 μl in 96 well plates and incubated for 24 hours at 37° C. […] The optical density was measured using a Multiskan spectrophotometer at 540 nm. […]
(§3) Cell survival was determined by incubation with ST1926 for 24 hours, 48 hours after the removal of the compound. […]

Human melanoma MeWo = test: Cytotoxicity test (sulphorodamine B), MeWo; format: cell-based; settings: 24 h incubation, survival 48 h after removal
Excerpt: as §1, §2, §3

Compound: O=C(O)/C=C/c1ccc(-c2ccc(O)c(C34CC5CC(CC(C5)C3)C4)c2)cc1 [ST1926, E-4-(3-(1-adamantyl)-4-hydroxyphenyl)cinnamic acid]
- interaction between ST1926 and TRAIL (analysis of Drewinko et al.) [1]: synergic activity
- chemotaxis of the BMEC cells towards FCS (in words) (BMEC cells): inhibition of chemotaxis
- IC50 [2]: 100 nM
- IC50 (Human melanoma MeWo): 230 nM
